From article PMC9207806 (ACS Chemical Biology, 2022)
Where two headings read alike, the source gives them in different places.

What was measured:
[1] = biological target: T1, D9 (Vaccinia virus, UniProt P04311); assay type: biochemical; conditions: 30 μM compound, 25 nM D9, 30 °C, 2 h, RP HPLC
T1 construct: His-tag (C); made in house

[2] = biological target: T2, VACV D9 decapping enzyme (Vaccinia virus, UniProt P04311); experiment: biochemical; assay type: biochemical
T2 construct: His-tag (C); made in house
Protocol: (§1) Point fluorescence measurements were performed using the BioTek Synergy H1 microplate reader. Before each measurement, the reaction buffer was degassed. Experiments were performed in the Greiner 96-well, black, non-binding plates at 30 °C. Before the measurement, the plate was preincubated for 15 min at 30 °C with mixing (300 rpm). The point fluorescence was registered with 1 min interval and detection at 345 nm excitation wavelength and 378 nm emission wavelength.
Experiments to determine IC50 parameters were performed as point fluorescence measurements. Each well contained an appropriate buffer (10 mM MOPS·HCl, pH 7.0, 100 mM KOAc, containing 2 mM MgCl2, 0.3 mM MnCl2, and 2 mM DTT) with addition of 0.1% BSA, a fluorescent substrate (3 μM of probe 1b), an inhibitor (in half-logarithmic dilution, cinh ∈ 0, 100 μM), and an enzyme (5 nM of D9) to a final volume of 150 μL. To determine the IC50 values, a three parameter dose–response formula with standard hill slope from GraphPad Prism software was fitted [drawing 3] where V/V0 is the relative initial rate of the reaction, Imin and Imax are bottom and top plateaus, and Cinh is the concentration of the inhibitor.

[3] = biological target: T1, D9; conditions: cited from earlier work
[4] = biological target: T1, D9; experiment: Time-dependent fluorescence changes of probes 1a-1e on D9 cleavage; assay type: biochemical; conditions: probe 100 nM, D9 50 nM, pH 7.5 (Figure S1)
Protocol: Fluorescence emission spectra were recorded using the Agilent Cary Eclipse fluorescence spectrophotometer equipped with the xenon lamp under temperature-controlled conditions. All experiments were performed at 37 °C in the Hellma quartz cuvette (10 × 4 mm) with a sample volume 1000 μL in 10 mM Tris·HCl (pH 7.5), 100 mM KOAc, 2 mM MgCl2, 0.5 mM MnCl2, and 2 mM DTT. Before each measurement, the buffer was degassed. Emission spectra were registered for all excitation maxima (detailed wavelengths for each probe: 1a—exc. 490/em. 512 nm; 1b, 1d, and 1e—345/378 nm; and 1c—420/489 nm).

[5] = biological target: T3, VACV D10 (Vaccinia virus, UniProt P04312); assay type: biochemical
T3 construct: made in house

[6] = system: C[n+]1cn([C@@H]2O[C@H](COP(=O)(O)OP(=O)([O-])OP(=O)(O)CCc3cn(CCOCCOCCNC(=O)Cc4ccc5ccc6cccc7ccc4c5c67)nn3)[C@@H](O)[C@H]2O)c2nc(N)[nH]c(=O)c21; experiment: Michaelis-Menten kinetics of probe 1b hydrolysis by D9; assay type: biochemical, Vaccinia virus; conditions: other: probe 0-15 μM, 5 nM D9; means of three experiments ± SEM; pH 7.0; 30.0 °C
Protocol: as §1
To determine the kinetic parameters of enzymatic hydrolysis of probe 1b by D9 enzyme, point fluorescence measurements were performed. Each well of the plate contained an appropriate buffer (10 mM MOPS·HCl, pH 7.0, 100 mM KOAc, containing 2 mM MgCl2, 0.3 mM MnCl2, and 2 mM DTT) with addition of 0.1% BSA, a substrate (probe 1b at a concentration range 0–15 μM) and an enzyme (5 nM of D9) to a final volume of 150 μL. The measurement was carried out on until full saturation, which allowed us to convert the initial rates from au/min to mol/min/mg. The initial rates were calculated by fitting a linear curve to the first 10 points (10 min) of the hydrolysis reaction. […]

[7] = biological target: T4, human Dcp1/2 complex (Homo sapiens, UniProt Q8IU60); assay type: biochemical; conditions: 11 nM hDcp1/2, inhibitor up to 100 μM, 37 °C, 1 h
T4 construct: His-tag; made in house; host or cells: E. coli BL21(DE3) RIL

[8] = system: SpDcp1/Dcp2; conditions: cited from earlier work
[9] = in-house nucleotide library (Table S1, Figure 3), 3 μM probe 1b, 5 nM D9, 30 °C, means of 3 independent experiments ± SEM, read-out: IC50, nucleotide-derived compounds, FLINT HTS assay
[10] = read-out: IC50, nucleotide-derived compounds, FLINT HTS assay, in-house nucleotide library (Table S1, Figure 3), 3 μM probe 1b, 5 nM D9, 30 °C, means of 3 independent experiments ± SEM

Cn1c[n+]([C@@H]2O[C@H](COP(=O)(O)OP(=O)([O-])OP(=O)(O)OC[C@H]3O[C@@H](n4cnc5c(=O)[nH]c(N)nc54)[C@H](O)[C@@H]3O)[C@@H](O)[C@H]2O)c2nc(N)[nH]c(=O)c21 [m7GpppG]
susceptibility to hydrolysis by D9 [1]: very poor D9 substrates
IC50 ([2]; LOPAC hits and reference compounds (Table 2), 3 μM probe 1b, 5 nM D9, 30 °C, mean ± SEM of three experiments, read-out: IC50, inhibitors identified by HTS screening): 15 ± 2 µM
IC50 [2, 9]: 11.3 ± 1.9 µM
D9 inhibition (literature) [3]: less potent D9 inhibitors

Cc1cc(C)n2c1C=C1C=CC(CNC(=O)CSP(=O)([O-])OP(=O)(O)OP(=O)(O)OC[C@H]3O[C@@H](n4c[n+](C)c5c(=O)[nH]c(N)nc54)[C@H](O)[C@@H]3O)=[N+]1[B-]2(F)F [Compound 1a, m^7GTPγS-BODIPY-FL]
time to complete hydrolysis by D9 [4]: ~ 40 min

C[n+]1cn([C@@H]2O[C@H](COP(=O)(O)OP(=O)([O-])OP(=O)(O)CCc3cn(CCOCCOCCNC(=O)Cc4ccc5ccc6cccc7ccc4c5c67)nn3)[C@@H](O)[C@H]2O)c2nc(N)[nH]c(=O)c21 [Compound 1b, m^7GTP-Py]
time to complete hydrolysis by D9 [4]: ~ 40 min

Cn1c[n+]([C@@H]2O[C@H](COP(=O)([O-])OP(=O)(O)OP(=O)(O)O)[C@@H](O)[C@H]2O)c2nc(N)[nH]c(=O)c21 [m7GTP]
susceptibility to hydrolysis by D9 [1]: very poor D9 substrates
IC50 [2, 9]: 0.77 ± 0.06 µM
D9 inhibition (literature) [3]: less potent D9 inhibitors

C[n+]1cn([C@@H]2O[C@H](COP(=O)(O)OP(=O)([O-])OP(=O)(O)CP(=O)(O)O)[C@@H](O)[C@H]2O)c2nc(N)nc(O)c21 [m7GpppCH2p]
inhibitory activity toward D10 [5]: weak inhibitory activity
IC50 [2, 10]: ~0.08 µM

VACV D9 decapping enzyme (Vaccinia virus WR)
Km [6]: 12.9 ± 2.2 µM
kcat/Km [6]: 6300 ± 1200 M⁻¹ s⁻¹

C[n+]1cn([C@@H]2O[C@H](COP(=O)([O-])OP(=O)(O)O)[C@@H](O)[C@H]2O)c2nc(N)[nH]c(=O)c21 [m7GDP]
IC50 [2]: 14.2 ± 2.4 µM
D9 inhibition (literature) [3]: less potent D9 inhibitors

CC[C@H](CO)Nc1nc(NCc2ccccc2)c2ncn(C(C)C)c2n1 [seliciclib, reference compound]
inhibitory activity toward D10 [5]: very low inhibitory activity
inhibitory activity toward Dcp1/2 [7]: very low inhibitory activity

Cc1n([C@@H]2O[C@H](COP(=O)(O)OP(=O)(O)O)[C@@H](O)[C@H]2O)c2nc(N)[nH]c(=O)c2[n+]1C [Compound 8Mem7GDP, 8Mem7GDP]
IC50 [2, 9]: > 100 µM

Cc1n([C@@H]2O[C@H](COP(=O)(O)OP(=O)(O)OP(=O)(O)O)[C@@H](O)[C@H]2O)c2nc(N)[nH]c(=O)c2[n+]1C [Compound 8Mem7GTP, 8Mem7GTP]
IC50 [2, 9]: 42.9 ± 7.8 µM

C[n+]1cn([C@@H]2O[C@H](COP(=O)([S-])OP(=O)(O)OP(=O)(O)OP(=O)([S-])OC[C@H]3O[C@@H](n4c[n+](C)c5c(O)nc(N)nc54)[C@H](O)[C@@H]3O)[C@@H](O)[C@H]2O)c2nc(N)nc(O)c21 (stereo partly shown) [m7GpSpppSm7G D3]
IC50 [2, 10]: 3.6 ± 0.4 µM
inhibition of yeast decapping enzyme SpDcp1/Dcp2 (literature) [8]: inhibitor

Nc1nc2c(ncn2[C@@H]2O[C@H](COP(=O)(O)OP(=O)(O)OP(=O)(O)OC[C@H]3O[C@@H](n4cnc5c(=O)[nH]c(N)nc54)[C@H](O)[C@@H]3O)[C@@H](O)[C@H]2O)c(=O)[nH]1 [GpppG]
IC50 [2, 9]: > 100 µM
